The results in this text go back to patent publication US11673889B2, “Substituted imidazo[4,5-c][1,8]naphthyridines as phosphodiesterase inhibitors” (Nanjing Zhengxiang Pharmaceuticals Co., Ltd., priority 2019, dated 2023).

Data set [1] concerns the target T1, human soluble ENPP1 (Homo sapiens, UniProt P22413).
T1 construct: 20 ng of human soluble ENPP1
T1 sequence (P22413 103-925 limits assumed): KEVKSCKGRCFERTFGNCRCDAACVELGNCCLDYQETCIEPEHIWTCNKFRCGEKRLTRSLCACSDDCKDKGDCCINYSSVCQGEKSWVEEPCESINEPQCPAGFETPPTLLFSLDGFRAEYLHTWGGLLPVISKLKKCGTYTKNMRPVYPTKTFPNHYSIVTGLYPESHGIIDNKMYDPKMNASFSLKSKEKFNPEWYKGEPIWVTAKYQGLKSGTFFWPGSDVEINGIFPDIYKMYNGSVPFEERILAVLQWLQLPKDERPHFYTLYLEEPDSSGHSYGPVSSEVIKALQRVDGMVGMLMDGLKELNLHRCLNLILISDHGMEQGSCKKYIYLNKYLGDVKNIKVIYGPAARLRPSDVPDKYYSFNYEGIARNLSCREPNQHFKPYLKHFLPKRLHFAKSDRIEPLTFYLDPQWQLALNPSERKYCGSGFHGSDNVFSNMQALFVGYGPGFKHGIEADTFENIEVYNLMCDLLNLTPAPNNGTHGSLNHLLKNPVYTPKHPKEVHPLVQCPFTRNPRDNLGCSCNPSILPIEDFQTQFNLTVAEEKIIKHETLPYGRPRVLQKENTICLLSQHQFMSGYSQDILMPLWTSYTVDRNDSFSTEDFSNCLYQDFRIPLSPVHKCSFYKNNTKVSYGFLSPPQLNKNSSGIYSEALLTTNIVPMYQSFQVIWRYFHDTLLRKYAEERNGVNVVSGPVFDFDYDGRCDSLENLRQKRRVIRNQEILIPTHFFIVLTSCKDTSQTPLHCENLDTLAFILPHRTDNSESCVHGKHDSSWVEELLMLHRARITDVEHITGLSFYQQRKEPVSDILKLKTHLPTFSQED
Put plainly: ENPP1 activity assay using p-Nitrophenyl-5′-AMP as a substrate. The format is biochemical. An outline of the steps: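 Human soluble ENPP1 (35 ng) preincubated with inhibitor 30 min at RT, then p-nitrophenyl-5′-AMP added (3 mM solution, 2× final) and incubated 1 h at RT. p-Nitrophenolate release read at OD 405 nm; % inhibition vs no-inhibitor and blank controls, IC50 from four-parameter fit.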

Data set [2] concerns the target T1, human soluble ENPP1. Put plainly: ENPP1 activity assay using p-Nitrophenyl-5′-TMP as a substrate. The format is biochemical. An outline of the steps:
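Human soluble ENPP1 (20 ng) was preincubated with inhibitor for 30 min at room temperature. TMP-pNP was then added as a 2 mM […] solution and incubated 1 h at RT, with p-nitrophenol formation read by OD. IC50 came from four-parameter fits of % inhibition relative to no-inhibitor and blank controls.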

Another data set concerns the target T2, ENPP-1, MDA-MB-231 cells (Homo sapiens, UniProt P22413).
T2 sequence (P22413 1-925): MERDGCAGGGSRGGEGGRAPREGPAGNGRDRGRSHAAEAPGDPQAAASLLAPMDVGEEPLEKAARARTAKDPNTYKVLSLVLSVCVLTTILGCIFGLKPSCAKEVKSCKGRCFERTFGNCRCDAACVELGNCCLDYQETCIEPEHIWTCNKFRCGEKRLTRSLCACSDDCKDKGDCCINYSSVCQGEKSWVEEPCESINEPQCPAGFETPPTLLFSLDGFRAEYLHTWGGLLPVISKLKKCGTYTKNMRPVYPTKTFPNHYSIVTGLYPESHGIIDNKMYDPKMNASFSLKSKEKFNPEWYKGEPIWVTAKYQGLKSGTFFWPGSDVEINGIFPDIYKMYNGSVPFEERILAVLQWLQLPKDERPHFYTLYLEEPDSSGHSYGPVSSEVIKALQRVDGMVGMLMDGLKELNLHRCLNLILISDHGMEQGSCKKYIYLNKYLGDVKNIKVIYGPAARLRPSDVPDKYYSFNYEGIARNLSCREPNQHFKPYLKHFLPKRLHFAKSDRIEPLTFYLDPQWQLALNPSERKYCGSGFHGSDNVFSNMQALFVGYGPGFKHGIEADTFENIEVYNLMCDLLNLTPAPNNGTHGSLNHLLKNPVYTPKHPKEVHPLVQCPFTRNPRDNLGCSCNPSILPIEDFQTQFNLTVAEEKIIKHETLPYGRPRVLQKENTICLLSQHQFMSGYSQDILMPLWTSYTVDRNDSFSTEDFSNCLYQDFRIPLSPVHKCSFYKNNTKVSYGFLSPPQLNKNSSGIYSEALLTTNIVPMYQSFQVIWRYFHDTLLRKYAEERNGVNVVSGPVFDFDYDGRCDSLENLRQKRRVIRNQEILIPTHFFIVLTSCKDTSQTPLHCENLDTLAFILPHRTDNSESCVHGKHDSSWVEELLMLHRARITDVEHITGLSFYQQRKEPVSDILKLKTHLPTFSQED
Kind of data set: cell-based. As to conditions: for inhibition at 20 µM: MDA-MB-231, read-out: % Inhibition (at 20 μM).

A short description of a further data set: Pharmacokinetics in mice. To be noted: mouse, plasma, male CD-1 mice; for AUC / clearance / half-life / Vd: 1 mg/kg, iv; for Vd: read-out: Vdss. The data set is classed as in vivo. On the procedure:
A dosing solution of test sample was prepared at 1.0 mg/mL in 5% DMSO/40% PEG400/55% water and administered to male CD-1 mice (4-6 weeks old, 20-30 grams, 3 animals each group) via intravenous (IV) bolus at 1 mg/kg and by oral gavage (PO) at 5 mg/kg. Blood samples (˜0.03 mL each time point) were collected via the jugular vein into tubes containing sodium heparin as the anticoagulant at 0.033, 0.083, 0.25, 0.5, 1, 2, 4, 8 and 24 hours post dose for IV administration and 0.083, 0.25, 0.5, 1, 2, 4, 8 and 24 hours post dose for PO administration. The blood samples were then centrifuged for 5 minutes in a centrifuge refrigerated at 4° C. The resultant plasma samples were analyzed using LC/MS/MS to determine concentrations of test sample. Non-compartmental model with WinNonlin (Phoenix™, version 8.0) software was used to calculate pharmacokinetic (PK) parameters.

The mark [3] stands for this setting: substrate TMP-pNP, 20 ng human soluble ENPP1, Tris buffer pH 9.5, read-out: TMP-pNP (IC50).

Regarding `COc1ccc2c(ncc3nnn(Cc4ccc(S(N)(=O)=O)cn4)c32)n1` [Compound 119, 6-((7-methoxy-1H-[1,2,3]triazolo[4,5-c][1,8]naphthyridin-1-yl)methyl)pyridine-3-sulfonamide], the IC50 (commonly the concentration that gives 50% inhibition) at human soluble ENPP1 [1] came to 1.1 nM. The compound also had a 50% inhibitory concentration (IC50) against human soluble ENPP1 [2] of 0.7 nM. Besides, at ENPP-1, MDA-MB-231 cells, the IC50 is 120 nM and the inhibition (usually how much of the control response was suppressed) at 20 µM was found to be 83%. For the same compound, in “Pharmacokinetics in mice”, the area under the curve (AUC) (commonly the area under the concentration-time curve, a measure of exposure) was 301 ng·h/mL; the clearance (usually the volume of plasma or blood freed of the substance per unit of time) is 56 mL/min/kg; the half-life – broadly, the time needed for the level to fall by half in the phase considered – is 1.4 h; the Vd was found to be 4.5 L/kg.

As to `COc1ccc2c(ncc3nc(C)n(Cc4ccc(S(N)(=O)=O)cn4)c32)n1` [Compound 72, 6-((7-methoxy-2-methyl-1H-imidazo[4,5-c][1,8]naphthyridin-1-yl)methyl)pyridine-3-sulfonamide], the IC50 at human soluble ENPP1 [1] was determined as 1.2 nM. For the same compound, the IC50 against human soluble ENPP1 [2] was determined as 0.58 nM. In addition, at ENPP-1, MDA-MB-231 cells, it took 340 nM to reach half-maximal inhibition (IC50) and the inhibition at 20 µM was 81%. In “Pharmacokinetics in mice”, the AUC is 303 ng·h/mL, the clearance was 56 mL/min/kg, the half-life was 1.4 h and the Vd is 2.9 L/kg.

Regarding `COc1ccc2c(ncc3nc(C)n(Cc4ccc(S(N)(=O)=O)c(F)c4)c32)n1` [Compound 71, 2-fluoro-4-((7-methoxy-2-methyl-1H-imidazo[4,5-c][1,8]naphthyridin-1-yl)methyl)benzenesulfonamide], the IC50 against human soluble ENPP1 [1] was 2.9 nM. The compound also gave an IC50 against human soluble ENPP1 [2] of 1 nM. In addition, on ENPP-1, MDA-MB-231 cells, inhibition was half-maximal at 1100 nM (IC50) and the inhibition at 20 µM worked out at 76%. Moreover, in the data set “Pharmacokinetics in mice”, the area under the curve (AUC) was determined as 288 ng·h/mL, the clearance came out at 60 mL/min/kg, the half-life was 0.74 h and the Vd amounted to 2.8 L/kg.

On to `COc1ccc2c(ncc3c2n(Cc2c(F)cc(S(N)(=O)=O)cc2F)c(=O)n3C)n1` [Compound 114, 3,5-difluoro-4-((7-methoxy-3-methyl-2-oxo-2,3-dihydro-1H-imidazo[4,5-c][1,8]naphthyridin-1-yl)methyl)benzenesulfonamide], for which, on human soluble ENPP1 [1], the midpoint of inhibition, the IC50, lay at 0.23 nM. This compound came in with an IC50 against human soluble ENPP1 [2] of 0.27 nM. For the same compound, on ENPP-1, MDA-MB-231 cells, the midpoint of inhibition, the IC50, lay at 80 nM and the inhibition at 20 µM was found to be 77%. In “Pharmacokinetics in mice”, the AUC came out at 454 ng·h/mL, the clearance amounted to 37 mL/min/kg, the half-life is 3.9 h and the Vd stood at 12 L/kg. Further, the bioavailability (commonly the share of a dose that reaches the circulation, judged against a reference dose that is usually intravenous) in the data set “Pharmacokinetics in mice” (oral gavage (PO) at 5 mg/kg vs IV 1 mg/kg) amounted to 33%.

`COc1ccc2c(ncc3nc(CC#N)n(Cc4ccc(S(N)(=O)=O)c(F)c4)c32)n1` [Compound 82, 4-((2-(cyanomethyl)-7-methoxy-1H-imidazo[4,5-c][1,8]naphthyridin-1-yl)methyl)-2-fluorobenzenesulfonamide] displayed an IC50 against human soluble ENPP1 [1] of 2.4 nM. On human soluble ENPP1 [2], this compound gave a half-inhibitory concentration (IC50) of 0.8 nM. At ENPP-1, MDA-MB-231 cells, the IC50 was found to be 560 nM and the inhibition at 20 µM worked out at 82%. In “Pharmacokinetics in mice”, the AUC came out at 253 ng·h/mL, the clearance was found to be 66 mL/min/kg, the half-life was 0.86 h and the Vd came to 2.2 L/kg.

At human soluble ENPP1 [1], `COc1ccc2c(ncc3nc(C4CC4)n(Cc4ccc(S(N)(=O)=O)cn4)c32)n1` [Compound 74, 6-((2-cyclopropyl-7-methoxy-1H-imidazo[4,5-c][1,8]naphthyridin-1-yl)methyl)pyridine-3-sulfonamide] showed a half-inhibitory concentration (IC50) of 0.12 nM. Further, on human soluble ENPP1 [2], the half-maximal inhibitory concentration (IC50) turned out to be 0.09 nM. Moreover, at ENPP-1, MDA-MB-231 cells, 85 nM corresponded to half-maximal inhibition (IC50) and the inhibition at 20 µM is 81%. For the same compound, in the data set “Pharmacokinetics in mice”, the area under the curve (AUC) worked out at 138 ng·h/mL, the clearance was found to be 123 mL/min/kg, the half-life was 1.4 h and the Vd was 14 L/kg.

`COc1ccc2c(ncc3[nH]c(=O)n(Cc4ccc(S(N)(=O)=O)cc4)c32)n1` [Compound 38, 4-((7-methoxy-2-oxo-2,3-dihydro-1H-imidazo[4,5-c][1,8]naphthyridin-1-yl)methyl)benzenesulfonamide]: half-maximal inhibition at human soluble ENPP1 [1] (IC50) was put at 0.75 nM. This compound also registered a concentration for half-maximal inhibition (IC50) against human soluble ENPP1 [2] of 0.31 nM. Further, in the data set “Pharmacokinetics in mice”, the AUC amounted to 370 ng·h/mL, the clearance came out at 45 mL/min/kg, the half-life was 1.9 h and the Vd was determined as 3.3 L/kg.

Take `COc1ccc2c(ncc3[nH]c(=O)n(Cc4ccc(S(N)(=O)=O)c(F)c4F)c32)n1` [Compound 95, 2,3-difluoro-4-((7-methoxy-2-oxo-2,3-dihydro-1H-imidazo[4,5-c][1,8]naphthyridin-1-yl)methyl)benzenesulfonamide]: the IC50 on human soluble ENPP1 [1] came to 4.6 nM; at human soluble ENPP1 [2] (setting [3]), 1.4 nM; against ENPP-1, MDA-MB-231 cells, 1400 nM. The inhibition at 20 µM on ENPP-1, MDA-MB-231 cells is 75%.

For the compound `COc1ccc2c(ncc3[nH]c(=O)n(Cc4c(F)cc(B(O)O)cc4F)c32)n1` [Compound 111, (3,5-difluoro-4-((7-methoxy-2-oxo-2,3-dihydro-1H-imidazo[4,5-c][1,8]naphthyridin-1-yl)methyl)phenyl)boronic acid], the IC50 against human soluble ENPP1 [1] stood at 21 nM; at human soluble ENPP1 [2] (setting [3]), 7.4 nM; against ENPP-1, MDA-MB-231 cells it was 0.31 nM. At ENPP-1, MDA-MB-231 cells, the inhibition at 20 µM was 80%.

On to `COc1ccc2c(ncc3ncn(Cc4ccc(S(N)(=O)=O)cc4Br)c32)n1` [Compound 68, 3-bromo-4-((7-methoxy-1H-imidazo[4,5-c][1,8]naphthyridin-1-yl)methyl)benzenesulfonamide], for which the concentration for half-maximal inhibition (IC50) against human soluble ENPP1 [1] stood at 1.7 nM; on human soluble ENPP1 [2] (setting [3]), 0.49 nM; against ENPP-1, MDA-MB-231 cells, 610 nM. Moreover, the inhibition at 20 µM on ENPP-1, MDA-MB-231 cells was found to be 86%.

With `COc1ccc2c(n1)nc(C)c1ncn(Cc3ccc(S(N)(=O)=O)cn3)c12` [Compound 87, 6-((7-methoxy-4-methyl-1H-imidazo[4,5-c][1,8]naphthyridin-1-yl)methyl)pyridine-3-sulfonamide], the IC50 against human soluble ENPP1 [1] turned out to be 4 nM; at human soluble ENPP1 [2], 1.3 nM; against ENPP-1, MDA-MB-231 cells, 360 nM. Also, the inhibition at 20 µM at ENPP-1, MDA-MB-231 cells was determined as 85%.
